Test results taken from patent US10294207B2, “Pyrazole derivatives as TNIK, IKKϵ and TBK1 inhibitor and pharmaceutical composition comprising same” (GREEN CROSS CORPORATION, priority 2015, dated 2019).

Experiments:
[1] = target: T1, TBK1 (Homo sapiens, UniProt Q9UHD2); assay: TBK1 inhibition, ADP-Glo Kinase Assay; format: biochemical; conditions: luminometer
T1 construct: purchased Promega V3991
T1 sequence (Q9UHD2 1-729): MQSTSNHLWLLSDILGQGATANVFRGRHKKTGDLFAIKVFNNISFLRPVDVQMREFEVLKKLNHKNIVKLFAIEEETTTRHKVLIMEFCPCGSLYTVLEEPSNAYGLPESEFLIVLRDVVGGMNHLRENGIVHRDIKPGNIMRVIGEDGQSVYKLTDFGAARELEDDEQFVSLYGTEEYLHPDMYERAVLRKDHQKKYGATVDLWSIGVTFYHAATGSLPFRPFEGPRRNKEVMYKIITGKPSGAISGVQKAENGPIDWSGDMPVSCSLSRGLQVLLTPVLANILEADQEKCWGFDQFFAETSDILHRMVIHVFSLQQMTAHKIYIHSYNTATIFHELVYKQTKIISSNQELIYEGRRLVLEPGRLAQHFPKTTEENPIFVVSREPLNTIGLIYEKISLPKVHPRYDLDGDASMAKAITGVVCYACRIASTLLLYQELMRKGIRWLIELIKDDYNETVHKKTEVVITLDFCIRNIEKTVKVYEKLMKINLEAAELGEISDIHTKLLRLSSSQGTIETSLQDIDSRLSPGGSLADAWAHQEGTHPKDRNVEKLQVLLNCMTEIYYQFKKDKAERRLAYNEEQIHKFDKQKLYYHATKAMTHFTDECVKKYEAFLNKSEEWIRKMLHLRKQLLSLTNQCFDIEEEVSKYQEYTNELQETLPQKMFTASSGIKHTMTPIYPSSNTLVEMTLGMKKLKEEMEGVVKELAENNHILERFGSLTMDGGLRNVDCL
How it was run: (§1)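 ADP-Glo luminescence reported ADP produced by each kinase, following the kit protocol. Reactions used commercial kinase enzyme systems in buffer of 40 mM Tris (pH 7.5), 20 mM MgCl2 and 0.1 mg/mL BSA.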

[2] = target: T2, IKKε (Homo sapiens, UniProt Q14164); assay: IKKε inhibition, ADP-Glo Kinase Assay; format: biochemical; conditions: luminometer
T2 construct: purchased Invitrogen PR8031B
T2 sequence (Q14164 1-716): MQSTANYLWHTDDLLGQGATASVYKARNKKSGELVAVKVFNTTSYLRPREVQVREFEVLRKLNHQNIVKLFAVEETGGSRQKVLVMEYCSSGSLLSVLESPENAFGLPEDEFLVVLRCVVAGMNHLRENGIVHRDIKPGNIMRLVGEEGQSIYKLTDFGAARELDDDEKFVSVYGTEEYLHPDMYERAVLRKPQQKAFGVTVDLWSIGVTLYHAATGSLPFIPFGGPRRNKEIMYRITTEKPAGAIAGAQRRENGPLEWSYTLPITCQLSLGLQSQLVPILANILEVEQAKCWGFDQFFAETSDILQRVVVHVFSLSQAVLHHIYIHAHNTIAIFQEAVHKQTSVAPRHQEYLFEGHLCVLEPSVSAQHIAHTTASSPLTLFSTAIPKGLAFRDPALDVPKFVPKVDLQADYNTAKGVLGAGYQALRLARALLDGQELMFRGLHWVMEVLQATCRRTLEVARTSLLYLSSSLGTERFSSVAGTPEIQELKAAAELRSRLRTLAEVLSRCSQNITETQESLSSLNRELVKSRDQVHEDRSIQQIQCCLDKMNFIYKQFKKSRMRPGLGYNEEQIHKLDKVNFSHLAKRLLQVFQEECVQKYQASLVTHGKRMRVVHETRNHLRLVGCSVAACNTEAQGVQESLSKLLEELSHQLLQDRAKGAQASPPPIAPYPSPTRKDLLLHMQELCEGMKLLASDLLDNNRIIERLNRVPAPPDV
How it was run: as §1

Row | SMILES | IC50 [1] [µM] | IC50 [2] [µM]
1 | CN1CCN(c2ccc(C(=O)Nc3n[nH]c4ccc(C(=O)NC5(c6cccs6)CC5)cc34)cc2)CC1 [Example 49, 3-(4-(4-Methylpiperazin-1-yl)benzamido)-N-(1-(thiophen-2-yl)cyclopropyl)-1H-indazole-5-carboxamide] | 0.0025 | 0.0034
2 | C[C@@H](NC(=O)c1ccc2[nH]nc(NC(=O)c3ccc(N4CCN(C)CC4)cc3)c2c1)c1ccccc1 [Example 175, (R)-3-(4-(4-Methylpiperazin-1-yl)benzamido)-N-(1-phenylethyl)-1H-indazole-5-carboxamide] | 0.0024 | 0.0076
3 | CC(NC(=O)c1ccc2[nH]nc(NC(=O)c3ccc(N4CCOCC4)cc3)c2c1)c1ccncc1 (centres unmarked) [Example 132, 3-(4-Morpholinobenzamido)-N-(1-(pyridin-4-yl)ethyl)-1H-indazole-5-carboxamide] | 0.023 | 0.043
4 | CCC(NC(=O)c1ccc2[nH]nc(NC(=O)c3ccc(N4CCN(C)CC4)cc3)c2c1)c1ccccc1 (centres unmarked) [Example 187, 3-(4-(4-Methylpiperazin-1-yl)benzamido)-N-(1-phenylpropyl)-1H-indazole-5-carboxamide] | 0.0035 | 0.018
5 | CCCC(NC(=O)c1ccc2[nH]nc(NC(=O)c3ccc(N4CCOCC4)cc3)c2c1)c1cccs1 (centres unmarked) [Example 58, 3-(4-Morpholinobenzamido)-N-(1-(thiophen-2-yl)butyl)-1H-indazole-5-carboxamide] | 0.039 | 0.13
6 | CC(C)(C)OC(=O)N1CC=C(c2ccc(C(=O)Nc3n[nH]c4ccc(C(=O)NCc5cccs5)cc34)cc2)CC1 [Example 198, tert-Butyl 4-(4-((5-((thiophen-2-ylmethyl)carbamoyl)-1H-indazol-3-yl)carbamoyl)phenyl)-3,6-tetrahydropyridine-1(2H)-carboxylate] | 0.15 | 1.28
7 | CN1CCN(c2ccc(C(=O)Nc3n[nH]c4ccc(C(=O)NCc5cscn5)cc34)cc2)CC1 [Example 174, 3-(4-(4-Methylpiperazin-1-yl)benzamido)-N-(thiazol-4-ylmethyl)-1H-indazole-5-carboxamide] | 0.045 | 0.54
8 | CNCCN(C)c1ccc(C(=O)Nc2n[nH]c3ccc(C(=O)NCc4cccs4)cc23)cc1 [Example 155, 3-(4-(Methyl(2-(methylamino)ethyl)amino)benzamido)-N-(thiophen-2-ylmethyl)-1H-indazole-5-carboxamide] | 0.0064 | 0.094
9 | CC(NC(=O)c1ccc2[nH]nc(NC(=O)c3ccc(F)cc3)c2c1)c1ccncc1 (centres unmarked) [Example 214, 3-(4-Fluorobenzamido)-N-(1-(pyridin-4-yl)ethyl)-1H-indazole-5-carboxamide] | 0.27 | 0.59
10 | CCC(NC(=O)c1ccc2[nH]nc(NC(=O)c3ccc(N4CCN(C(C)=O)CC4)cc3)c2c1)c1ccsc1 (centres unmarked) [Example 209, 3-(4-(4-Acetylpiperazin-1-yl)benzamido)-N-(1-(thiophen-3-yl)propyl)-1H-indazole-5-carboxamide] | 0.0029 | 0.015
11 | CC[C@H](NC(=O)c1ccc2[nH]nc(NC(=O)c3ccc(N4CCN(C)CC4)cc3)c2c1)c1cccs1 [Example 111, (S)-3-(4-(4-Methylpiperazin-1-yl)benzamido)-N-(1-(thiophen-2-yl)propyl)-1H-indazole-5-carboxamide] | 0.014 | 0.074
12 | CN1CCN(c2ccc(C(=O)Nc3n[nH]c4ccc(C(=O)NC(c5ccccc5)C5CC5)cc34)cc2)CC1 (centres unmarked) [Example 197, N-(Cyclopropyl(phenyl)methyl)-3-(4-(4-methylpiperazin-1-yl)benzamido)-1H-indazole-5-carboxamide] | 0.027 | 0.042
13 | CC(CCO)NC(=O)c1ccc2[nH]nc(NC(=O)c3ccc(N4CCN(C)CC4)cc3)c2c1 (centres unmarked) [Example 93, N-(4-Hydroxybutan-2-yl)-3-(4-(4-methylpiperazin-1-yl)benzamido)-1H-indazole-5-carboxamide] | 0.19 | 1.04
14 | CC(NC(=O)c1ccc2[nH]nc(NC(=O)c3ccc(N4CCNCC4)cc3)c2c1)c1ccccc1 (centres unmarked) [Example 181, N-(1-Phenylethyl)-3-(4-(piperazin-1-yl)benzamido)-1H-indazole-5-carboxamide 2,2,2-trifluoroacetate] | 0.0039 | 0.022
15 | CC(NC(=O)c1ccc2[nH]nc(NC(=O)c3ccc(N4CCN(C)CC4)cc3)c2c1)c1cccs1 (centres unmarked) [Example 44, 3-(4-(4-Methylpiperazin-1-yl)benzamido)-N-(1-(thiophen-2-yl)ethyl)-1H-indazole-5-carboxamide] | 0.0035 | 0.0031
16 | CN1CCN(c2ccc(C(=O)Nc3n[nH]c4ccc(C(=O)NCc5cccnc5)cc34)cc2)CC1 [Example 57, 3-(4-(4-Methylpiperazin-1-yl)benzamido)-N-(pyridin-3-ylmethyl)-1H-indazole-5-carboxamide bis(2,2,2-trifluoroacetate)] | 0.0012 | 0.14
17 | CN1CCN(c2ccc(C(=O)Nc3n[nH]c4ccc(C(=O)NC(C)(C)c5ccccc5)cc34)cc2)CC1 [Example 63, 3-(4-(4-Methylpiperazin-1-yl)benzamido)-N-(2-phenylpropan-2-yl)-1H-indazole-5-carboxamide] | 0.0094 | 0.036
18 | CCC(NC(=O)c1ccc2[nH]nc(NC(=O)c3ccc(N4CCOCC4)cc3)c2c1)c1cccs1 (centres unmarked) [Example 54, 3-(4-Morpholinobenzamido)-N-(1-(thiophen-2-yl)propyl)-1H-indazole-5-carboxamide] | 0.00036 | 0.0031
19 | CN1CCN(c2ccc(C(=O)Nc3n[nH]c4ccc(C(=O)NCc5ccc(C(F)(F)F)nc5)cc34)cc2)CC1 [Example 72, 3-(4-(4-Methylpiperazin-1-yl)benzamido)-N-((6-(trifluoromethyl)pyridin-3-yl)methyl)-1H-indazole-5-carboxamide] | 0.35 | 1.83
20 | CCC(C)(NC(=O)c1ccc2[nH]nc(NC(=O)c3ccc(N4CCN(C)CC4)cc3)c2c1)c1cccs1 (centres unmarked) [Example 131, 3-(4-(4-methylpiperazin-1-yl)benzamido)-N-(2-(thiophen-2-yl)butan-2-yl)-1H-indazole-5-carboxamide] | 0.03 | 0.14
21 | O=C(NCc1ccsc1)c1ccc2[nH]nc(NC(=O)c3ccc(N4CCOCC4)cc3)c2c1 [Example 46, 3-(4-Morpholinobenzamido)-N-(thiophen-3-ylmethyl)-1H-indazole-5-carboxamide] | 0.0015 | 0.022
22 | CN1CCN(c2ccc(C(=O)Nc3n[nH]c4ccc(C(=O)NCc5ccccc5F)cc34)cc2)CC1 [Example 196, N-(2-Fluorobenzyl)-3-(4-(4-methylpiperazin-1-yl)benzamido)-1H-indazole-5-carboxamide] | 0.007 | 0.032
23 | CN1CCN(c2ccc(C(=O)Nc3n[nH]c4ccc(C(=O)NC(C)(C)c5cccs5)cc34)cc2)CC1 [Example 136, 3-(4-(4-Methylpiperazin-1-yl)benzamido)-N-(2-(thiophen-2-yl)propan-2-yl)-1H-indazole-5-carboxamide] | 0.0057 | 0.024
24 | CCC(NC(=O)c1ccc2[nH]nc(NC(=O)c3ccc(N4CCNCC4)cc3)c2c1)c1cccs1 (centres unmarked) [Example 102, 3-(4-(Piperazin-1-yl)benzamido)-N-(1-(thiophen-2-yl)propyl)-1H-indazole-5-carboxamide] | 0.0058 | 0.025
25 | CC(C)(NC(=O)c1ccc2[nH]nc(NC(=O)c3ccc(F)cc3)c2c1)c1ccccc1 [Example 20, 3-(4-Fluorobenzamido)-N-(2-phenylpropan-2-yl)-1H-indazole-5-carboxamide] | 0.31 | 0.35
